What was measured:
[1] = biological target: T1, Enoyl-[acyl-carrier-protein] reductase [NADH] (Mycobacterium tuberculosis, UniProt P9WGR1); assay: Inhibition of Mycobacterium tuberculosis Enoyl-[acyl-carrier-protein] reductase
T1 sequence (P9WGR1 whole entry): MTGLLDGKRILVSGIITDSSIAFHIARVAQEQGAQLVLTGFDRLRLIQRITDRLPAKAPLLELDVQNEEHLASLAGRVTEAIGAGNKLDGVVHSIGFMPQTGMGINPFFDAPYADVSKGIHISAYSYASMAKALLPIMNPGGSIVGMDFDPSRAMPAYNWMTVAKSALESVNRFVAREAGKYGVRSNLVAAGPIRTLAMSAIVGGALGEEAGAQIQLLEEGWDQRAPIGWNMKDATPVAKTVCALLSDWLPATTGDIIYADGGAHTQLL

[2] = Inhibition of Mycobacterium tuberculosis acyl-CoA corboxylase corboxyltransferase domain 5

Compound	Ki [1]	Ki [2]
CCCCCCCCc1ccc(Oc2ccccc2)c(O)c1	0.001 µM	–
Nc1ccc(/N=N/c2ccc(-c3ccc(O)cc3)cc2)c2ccc(S(=O)(=O)O)cc12	–	13 µM

Reference: ChEMBL document CHEMBL1149916, “Natural products, small molecules, and genetics in tuberculosis drug development” (J Med Chem, 2008)
